{"source": "patent US20220143046A1", "about": "“COMPOSITION AND METHODS FOR RECTAL DELIVERY OF 4-AAPA AND 5-ASA COMPOUNDS” (9 METERS BIOPHARMA, INC., priority 2019, published 2022)", "origin": "cited, not measured here", "tested_on": "toxin A-induced colonic inflammation", "conditions": "rats; cited from earlier US patents and McVey et al. 2005"}
{"smiles": "O=C(O)Cc1ccc(/N=N/c2ccc(O)c(C(=O)O)c2)cc1", "note": "[INN-108, 5-(4-carboxymethyl-phenylazo)-2-hydroxybenzoic acid]", "values": [{"measurement": "inhibition of toxin A-induced colonic inflammation", "value": "potent inhibitor"}]}
